From the kinase profiling compilation of Christmann-Franck et al. (2016)

Experiments:
Test in all cases: radiometric filter-binding kinase assay, Kinase HotSpot
Details in all cases: compound 0.5 µM; ATP 10 µM
DDR2 (human) = DDR2 (human) (UniProt Q16832)
EPHA7 (human) = EPHA7 (human) (UniProt Q15375)
NEK9 (human) = NEK9 (human) (UniProt Q8TD19)
AXL (human) = AXL (human) (UniProt P30530)
FGFR2 (human) = FGFR2 (human) (UniProt P21802)
TBK1 (human) = TBK1 (human) (UniProt Q9UHD2)
MARK4 (human) = MARK4 (human) (UniProt Q96L34)
STK25 (human) = STK25 (human) (UniProt O00506)
CDK4 CCND1 (human) = CDK4 CCND1 (human) (UniProt P24385+P11802)
SGK3 (human) = SGK3 (human) (UniProt Q96BR1)
MAPK13 (human) = MAPK13 (human) (UniProt O15264)
MAPK13 (human), sequence (O15264 whole entry, looked up): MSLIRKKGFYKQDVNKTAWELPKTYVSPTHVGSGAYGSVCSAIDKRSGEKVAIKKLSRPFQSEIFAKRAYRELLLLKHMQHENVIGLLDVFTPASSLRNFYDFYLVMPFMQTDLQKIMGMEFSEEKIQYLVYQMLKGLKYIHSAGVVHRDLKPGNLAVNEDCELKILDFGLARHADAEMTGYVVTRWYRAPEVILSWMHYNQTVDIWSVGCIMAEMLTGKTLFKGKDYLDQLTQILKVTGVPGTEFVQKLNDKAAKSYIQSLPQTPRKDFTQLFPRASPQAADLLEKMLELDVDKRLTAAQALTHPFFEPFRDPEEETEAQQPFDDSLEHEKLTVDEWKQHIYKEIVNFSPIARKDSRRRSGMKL

CDK7 CCNH MNAT1 (human) = CDK7 CCNH MNAT1 (human) (UniProt P50613+P51948+P51946)
CDK7 CCNH MNAT1 (human), sequence (P50613 whole entry, looked up): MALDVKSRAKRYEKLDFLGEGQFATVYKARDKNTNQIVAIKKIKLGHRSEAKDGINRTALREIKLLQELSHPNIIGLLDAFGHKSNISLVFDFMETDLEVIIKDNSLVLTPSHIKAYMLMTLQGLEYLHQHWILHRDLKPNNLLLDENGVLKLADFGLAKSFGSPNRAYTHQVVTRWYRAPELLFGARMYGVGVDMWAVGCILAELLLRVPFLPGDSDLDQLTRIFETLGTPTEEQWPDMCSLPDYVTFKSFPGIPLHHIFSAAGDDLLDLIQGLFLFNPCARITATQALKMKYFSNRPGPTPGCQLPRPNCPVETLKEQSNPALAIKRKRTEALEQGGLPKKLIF
CDK7 CCNH MNAT1 (human), sequence (P51946 whole entry, looked up): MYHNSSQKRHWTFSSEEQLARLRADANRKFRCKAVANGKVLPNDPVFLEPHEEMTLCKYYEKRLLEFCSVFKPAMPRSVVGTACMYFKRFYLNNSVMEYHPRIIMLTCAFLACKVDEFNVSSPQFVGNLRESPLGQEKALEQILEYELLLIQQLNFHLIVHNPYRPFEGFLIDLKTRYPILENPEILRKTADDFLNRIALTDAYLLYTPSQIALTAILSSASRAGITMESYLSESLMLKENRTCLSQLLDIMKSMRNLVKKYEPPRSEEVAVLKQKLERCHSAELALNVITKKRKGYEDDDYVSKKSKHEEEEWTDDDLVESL
CDK7 CCNH MNAT1 (human), sequence (P51948 whole entry, looked up): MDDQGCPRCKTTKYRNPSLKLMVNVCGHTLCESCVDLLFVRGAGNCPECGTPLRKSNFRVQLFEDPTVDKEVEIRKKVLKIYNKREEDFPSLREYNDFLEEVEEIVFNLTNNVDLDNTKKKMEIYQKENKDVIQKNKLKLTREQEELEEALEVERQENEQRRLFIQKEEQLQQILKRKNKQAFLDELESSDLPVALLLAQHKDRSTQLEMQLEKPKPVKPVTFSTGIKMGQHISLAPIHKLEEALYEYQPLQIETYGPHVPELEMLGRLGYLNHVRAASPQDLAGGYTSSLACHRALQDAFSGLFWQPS

DCLK2 (human) = DCLK2 (human) (UniProt Q8N568)
DCLK2 (human), sequence (Q8N568 whole entry, looked up): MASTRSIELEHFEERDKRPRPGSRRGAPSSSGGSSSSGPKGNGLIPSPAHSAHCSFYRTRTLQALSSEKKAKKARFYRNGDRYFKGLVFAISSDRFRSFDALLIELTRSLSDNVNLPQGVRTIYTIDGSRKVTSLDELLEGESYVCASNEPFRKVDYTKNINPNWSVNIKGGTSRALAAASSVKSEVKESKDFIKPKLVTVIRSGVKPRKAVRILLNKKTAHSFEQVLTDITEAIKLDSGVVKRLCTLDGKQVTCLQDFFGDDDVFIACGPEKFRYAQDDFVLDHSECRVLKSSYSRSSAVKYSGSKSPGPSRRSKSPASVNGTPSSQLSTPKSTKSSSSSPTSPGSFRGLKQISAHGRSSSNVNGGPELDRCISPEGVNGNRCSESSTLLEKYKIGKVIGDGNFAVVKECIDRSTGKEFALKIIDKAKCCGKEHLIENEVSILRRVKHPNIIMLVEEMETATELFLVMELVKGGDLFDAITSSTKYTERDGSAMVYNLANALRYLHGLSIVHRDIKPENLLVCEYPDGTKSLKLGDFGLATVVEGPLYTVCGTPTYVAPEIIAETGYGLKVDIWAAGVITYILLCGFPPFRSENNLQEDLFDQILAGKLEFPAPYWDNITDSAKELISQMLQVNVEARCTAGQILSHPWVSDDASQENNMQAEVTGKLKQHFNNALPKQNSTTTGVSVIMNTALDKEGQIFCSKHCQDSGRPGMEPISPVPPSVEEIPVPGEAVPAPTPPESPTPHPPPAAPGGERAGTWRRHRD

CDK5 CDK5R1 p35 (human) = CDK5 CDK5R1 p35 (human) (UniProt Q00535+Q15078)
RPS6KB1 (human) = RPS6KB1 (human) (UniProt P23443)
FYN (human) = FYN (human) (UniProt P06241)
IKBKB (human) = IKBKB (human) (UniProt O14920)
SIK2 (human) = SIK2 (human) (UniProt Q9H0K1)
HIPK1 (human) = HIPK1 (human) (UniProt Q86Z02)
BLK (human) = BLK (human) (UniProt P51451)
PRKCD (human) = PRKCD (human) (UniProt Q05655)
CSNK1D (human) = CSNK1D (human) (UniProt P48730)
INSR (human) = INSR (human) (UniProt P06213)
INSR (human), sequence (P06213 whole entry, looked up): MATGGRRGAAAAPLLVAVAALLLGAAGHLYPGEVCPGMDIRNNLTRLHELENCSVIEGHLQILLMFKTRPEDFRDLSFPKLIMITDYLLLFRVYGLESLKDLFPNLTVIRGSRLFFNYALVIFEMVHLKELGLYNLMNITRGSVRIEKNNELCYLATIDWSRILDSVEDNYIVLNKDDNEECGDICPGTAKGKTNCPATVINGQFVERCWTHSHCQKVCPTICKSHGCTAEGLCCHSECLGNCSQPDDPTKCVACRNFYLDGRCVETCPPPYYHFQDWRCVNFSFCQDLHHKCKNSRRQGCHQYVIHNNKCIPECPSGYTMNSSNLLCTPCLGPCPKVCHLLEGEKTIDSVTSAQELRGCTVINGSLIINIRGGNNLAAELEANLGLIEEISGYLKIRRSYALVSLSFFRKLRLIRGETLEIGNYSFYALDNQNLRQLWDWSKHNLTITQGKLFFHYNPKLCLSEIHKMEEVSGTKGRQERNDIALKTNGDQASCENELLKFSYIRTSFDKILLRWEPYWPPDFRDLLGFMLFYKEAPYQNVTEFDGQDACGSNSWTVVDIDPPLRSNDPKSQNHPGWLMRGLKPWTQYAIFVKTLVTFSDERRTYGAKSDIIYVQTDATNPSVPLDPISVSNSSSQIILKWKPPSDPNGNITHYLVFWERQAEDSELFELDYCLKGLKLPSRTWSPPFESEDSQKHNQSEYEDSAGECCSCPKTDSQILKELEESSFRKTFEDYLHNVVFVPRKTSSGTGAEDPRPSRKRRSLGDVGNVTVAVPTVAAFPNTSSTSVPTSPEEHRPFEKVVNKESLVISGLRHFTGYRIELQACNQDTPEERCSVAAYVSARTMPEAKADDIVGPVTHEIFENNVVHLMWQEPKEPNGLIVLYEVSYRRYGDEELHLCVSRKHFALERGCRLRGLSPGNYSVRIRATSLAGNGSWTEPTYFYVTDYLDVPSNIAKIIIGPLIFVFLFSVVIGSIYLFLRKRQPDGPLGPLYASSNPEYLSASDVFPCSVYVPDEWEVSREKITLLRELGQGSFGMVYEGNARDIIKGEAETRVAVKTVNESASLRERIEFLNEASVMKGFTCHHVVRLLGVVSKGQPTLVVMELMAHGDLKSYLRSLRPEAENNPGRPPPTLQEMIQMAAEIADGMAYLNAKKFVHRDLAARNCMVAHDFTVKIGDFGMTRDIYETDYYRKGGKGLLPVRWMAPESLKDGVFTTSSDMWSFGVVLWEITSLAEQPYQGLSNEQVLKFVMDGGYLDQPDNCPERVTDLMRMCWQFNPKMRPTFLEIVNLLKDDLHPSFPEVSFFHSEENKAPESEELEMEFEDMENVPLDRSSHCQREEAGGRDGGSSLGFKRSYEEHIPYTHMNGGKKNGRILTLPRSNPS

MKNK2 (human) = MKNK2 (human) (UniProt Q9HBH9)
MKNK2 (human), sequence (Q9HBH9 whole entry, looked up): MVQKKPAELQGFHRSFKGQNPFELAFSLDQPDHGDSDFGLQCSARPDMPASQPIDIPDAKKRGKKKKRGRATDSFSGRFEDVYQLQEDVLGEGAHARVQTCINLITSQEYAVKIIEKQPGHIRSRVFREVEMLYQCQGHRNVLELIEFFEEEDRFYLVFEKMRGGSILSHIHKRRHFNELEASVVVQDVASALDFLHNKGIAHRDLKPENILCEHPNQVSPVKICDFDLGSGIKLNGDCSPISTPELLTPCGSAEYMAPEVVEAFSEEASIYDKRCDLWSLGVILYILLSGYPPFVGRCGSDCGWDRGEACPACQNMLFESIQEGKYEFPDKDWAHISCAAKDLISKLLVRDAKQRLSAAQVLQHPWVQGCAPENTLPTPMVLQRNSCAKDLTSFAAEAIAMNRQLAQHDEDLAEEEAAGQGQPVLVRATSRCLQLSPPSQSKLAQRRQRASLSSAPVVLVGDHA

TSSK2 (human) = TSSK2 (human) (UniProt Q96PF2)
TSSK2 (human), sequence (Q96PF2 whole entry, looked up): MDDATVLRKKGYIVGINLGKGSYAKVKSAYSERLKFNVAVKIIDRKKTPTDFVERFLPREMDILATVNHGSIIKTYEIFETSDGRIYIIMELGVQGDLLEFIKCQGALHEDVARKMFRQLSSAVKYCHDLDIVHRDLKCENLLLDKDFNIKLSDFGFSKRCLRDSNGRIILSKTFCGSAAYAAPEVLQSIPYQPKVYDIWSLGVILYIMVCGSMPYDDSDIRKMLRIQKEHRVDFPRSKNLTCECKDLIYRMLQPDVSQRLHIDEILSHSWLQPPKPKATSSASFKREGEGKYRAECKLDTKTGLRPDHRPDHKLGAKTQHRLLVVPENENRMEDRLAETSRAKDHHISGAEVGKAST

PLK1 (human) = PLK1 (human) (UniProt P53350)
STK17A (human) = STK17A (human) (UniProt Q9UEE5)
CDK4 CCND3 (human) = CDK4 CCND3 (human) (UniProt P30281+P11802)
PAK6 (human) = PAK6 (human) (UniProt Q9NQU5)
SRPK3 (human) = SRPK3 (human) (UniProt Q9UPE1)
SRPK1 (human) = SRPK1 (human) (UniProt Q96SB4)
SRPK1 (human), sequence (Q96SB4 whole entry, looked up): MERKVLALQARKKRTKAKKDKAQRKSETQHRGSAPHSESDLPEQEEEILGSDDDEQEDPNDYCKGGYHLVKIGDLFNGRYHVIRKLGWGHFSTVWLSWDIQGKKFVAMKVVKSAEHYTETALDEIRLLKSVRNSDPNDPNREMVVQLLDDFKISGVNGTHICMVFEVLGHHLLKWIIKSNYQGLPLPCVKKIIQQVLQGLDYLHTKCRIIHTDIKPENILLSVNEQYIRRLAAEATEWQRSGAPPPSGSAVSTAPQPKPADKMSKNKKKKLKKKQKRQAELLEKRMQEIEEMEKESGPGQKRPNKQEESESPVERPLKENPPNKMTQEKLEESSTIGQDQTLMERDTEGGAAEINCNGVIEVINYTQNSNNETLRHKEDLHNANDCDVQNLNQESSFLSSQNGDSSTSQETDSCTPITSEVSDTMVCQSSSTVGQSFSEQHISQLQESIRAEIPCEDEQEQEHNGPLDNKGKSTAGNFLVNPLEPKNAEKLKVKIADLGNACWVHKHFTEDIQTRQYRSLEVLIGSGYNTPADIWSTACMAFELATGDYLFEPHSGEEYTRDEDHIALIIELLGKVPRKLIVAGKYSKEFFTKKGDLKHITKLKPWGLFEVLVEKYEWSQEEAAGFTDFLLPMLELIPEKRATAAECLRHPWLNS

GSK3B (human) = GSK3B (human) (UniProt P49841)
PLK2 (human) = PLK2 (human) (UniProt Q9NYY3)
AKT1 (human) = AKT1 (human) (UniProt P31749)
GRK7 (human) = GRK7 (human) (UniProt Q8WTQ7)
BTK (human) = BTK (human) (UniProt Q06187)
MAPK11 (human) = MAPK11 (human) (UniProt Q15759)
DAPK3 (human) = DAPK3 (human) (UniProt O43293)
EPHA5 (human) = EPHA5 (human) (UniProt P54756)
PRKD2 (human) = PRKD2 (human) (UniProt Q9BZL6)
FES (human) = FES (human) (UniProt P07332)

O=C1Nc2ccccc2/C1=C\c1c(Cl)[nH]c2ccccc12
residual activity (DDR2 (human)): 92.7% | residual activity (EPHA7 (human)): 95.3% | residual activity (NEK9 (human)): 94.2% | residual activity (AXL (human)): 97.8% | residual activity (FGFR2 (human)): 102% | residual activity (TBK1 (human)): 95.9% | residual activity (MARK4 (human)): 106% | residual activity (STK25 (human)): 97.7% | residual activity (CDK4 CCND1 (human)): 98.4% | residual activity (SGK3 (human)): 102% | residual activity (MAPK13 (human)): 98.9% | residual activity (CDK7 CCNH MNAT1 (human)): 99.7% | residual activity (DCLK2 (human)): 93.5% | residual activity (CDK5 CDK5R1 p35 (human)): 86.7% | residual activity (RPS6KB1 (human)): 99.7% | residual activity (FYN (human)): 101% | residual activity (IKBKB (human)): 106% | residual activity (SIK2 (human)): 103% | residual activity (HIPK1 (human)): 100% | residual activity (BLK (human)): 95.4% | residual activity (PRKCD (human)): 88.4% | residual activity (CSNK1D (human)): 90.5% | residual activity (INSR (human)): 91.2% | residual activity (MKNK2 (human)): 93.5% | residual activity (TSSK2 (human)): 113% | residual activity (PLK1 (human)): 95.4% | residual activity (STK17A (human)): 95.2% | residual activity (CDK4 CCND3 (human)): 97.4% | residual activity (PAK6 (human)): 101% | residual activity (SRPK3 (human)): 97.1% | residual activity (SRPK1 (human)): 94.2% | residual activity (GSK3B (human)): 105% | residual activity (PLK2 (human)): 98.2% | residual activity (AKT1 (human)): 94% | residual activity (GRK7 (human)): 106% | residual activity (BTK (human)): 94.6% | residual activity (MAPK11 (human)): 94.5% | residual activity (DAPK3 (human)): 91.2% | residual activity (EPHA5 (human)): 83.4% | residual activity (PRKD2 (human)): 90.2% | residual activity (FES (human)): 96.6%
